Where two headings read alike, the source gives them in different places.
Tested on: human peripheral blood lymphocytes
Assay type: cell-based
Conditions: 3 h
From the text: While screening microscope preparations to determine trends in the levels of the main CBMN assay descriptors, nonviable cells were also simultaneously counted on the same slides. Their discrimination was based on the specific morphological features typical for apoptosis or necrosis. It is well known that the biological significance of these phenomena differs deeply, and that the determination of the predominant type of cell death represents a very important issue in each experimental setting.
For each experimental group, we also calculated the ratio between the recorded number of nonviable cells and the cells in apoptosis (Table 5). According to reference, a ratio ≤ 1 means a prevalence of apoptotic events that induce cell death, while a ratio > 1 indicates the acute toxicity of the tested substance that promotes necrosis.

[1] = scored along with 4000 binucleated cells, 1× + IRI 9.0 mg/L, propolis 1.36 mg/L, galangin 0.02 mg/L
[2] = scored along with 4000 binucleated cells, 5× + IRI 9.0 mg/L, propolis 6.8 mg/L, galangin […]
[3] = scored along with 4000 binucleated cells, 10× + IRI 9.0 mg/L, propolis 13.6 mg/L, galangin 0.22 mg/L

O=c1c(O)c(-c2ccccc2)oc2cc(O)cc(O)c12 [Galangin]
Ratio (nonviable cells and cells in apoptosis) (1× + IRI 9.0 mg/L, propolis 1.36 mg/L, galangin 0.02 mg/L): 0.5 | Ratio (nonviable cells and cells in apoptosis) (5× + IRI 9.0 mg/L, propolis 6.8 mg/L, galangin […]): 0.5 | Ratio (nonviable cells and cells in apoptosis) (10× + IRI 9.0 mg/L, propolis 13.6 mg/L, galangin 0.22 mg/L): 0.6 | Ratio (nonviable cells and cells in apoptosis) (male, human, 0.02 mg/L): 0.5 | Total No. of Cells in Apoptosis (male, human, 0.02 mg/L): 7 | Total No. of Nonviable Cells (male, human, 0.02 mg/L): 14 | Ratio (nonviable cells and cells in apoptosis) (male, human, 0.22 mg/L): 0.7 | Total No. of Cells in Apoptosis (male, human, 0.22 mg/L): 8 | Total No. of Nonviable Cells (male, human, 0.22 mg/L): 12 | Total No. of Cells in Apoptosis [1]: 28 | Total No. of Nonviable Cells [1]: 52 | Total No. of Cells in Apoptosis [2]: 23 | Total No. of Nonviable Cells [2]: 42 | Total No. of Cells in Apoptosis [3]: 19 | Total No. of Nonviable Cells [3]: 34

From paper PMC11946679 (Toxics, 2025)
